Patent US20250041311A1, “Compound For Treating or Preventing Vimentin-Mediated Diseases” (Aluda Pharmaceuticals, Inc., priority 2021, published 2025)
Entries after “also recorded” stand apart in the source; their conditions may differ. Like-named read-outs stand apart in the source and are kept apart here.

Legend:
A549 cells [1] = test: Transwell cell invasive growth assay; assay type: cell-based, human; details: different concentrations of C52, 24 h
Protocol: (§1) Cell invasive growth assay: Inoculate 1×10E4 cells suspended in 100 μL serum-free RPMI-1640 medium into each upper chamber of a […] Transwell pre-coated with Matrigel and added with DMSO or […] (Cat.3422, Corning, NY, USA). in different concentrations. Add 600 μL of RPMI-1640 containing 10% FBS to the bottom chamber of each well. Cells in transwell plates were cultured for 24 h. Cells on the upper surface were gently wiped with a moistened cotton swab, while cells that passed through the Matrigel to the lower surface of the membrane were fixed with paraformaldehyde and stained with 0.1% crystal violet. These cells on the lower surface were considered invasive and counted in 5 random fields under an inverted microscope. The number of invasive cells was counted by Image J software.

PANC-1 cells [2] = test: Transwell cell invasive growth assay; assay type: cell-based, human; details: different concentrations of C52, 24 h; more pronounced than in A549
Protocol: as §1

PANC-1 cells [3] = test: Wound healing assay; assay type: cell-based, human; details: different concentrations of C52, 24 h, dose-dependent
Protocol: Wound healing assay: Cells were seeded in 6-well plates containing complete medium and cultured at 37° C. in a humidified air environment containing 5% CO2. […] Then, the cells were washed 3 times with PBS, and then incubated with serum-free RPMI-1640 medium containing different concentrations of […] for 24 h. The wound area and migrated cells within the wound area were photographed using a phase-contrast microscope. The wound area was measured using Image J software.

HEK293T cells = test: Liposome-mediated pMAX-GFP transfection (endocytosis and endosomal trafficking); assay type: cell-based
Huh7-NC12 cells [4] = test: PrestoBlue cell viability of liver cancer cells
[5] = test system: 84 selected human cancer-associated proteins in PANC-1 cells; details: 3 μM C52 or 5 μM C52 for 48 h
Protocol: (§3) Cell culture: Human non-small cell lung cancer A549 cells, human pancreatic cancer PANC-1 cells, human glioma U87 cells, human liver cancer HUH7 cells and SMMC-7721 cells, and human gastric cancer AGS cells were purchased from ATCC or Stem Cell Bank of Chinese Academy of Sciences (Shanghai, China). Cells were cultured in RPMI1640 medium containing 10% fetal bovine serum (Sigma, USA), 100 U penicillin and 100 μg/ml streptomycin (Gibco, USA) at 37° C. in a humidified atmosphere containing 5% CO2.
(§4) A total of 200 g of lysate protein was run on one Human XL Tumor Array (R&D Systems, Abingdon, UK). Followed the manufacturer's instructions exactly. The protein chip membrane was covered with plastic film and exposed to X-ray film for 8 minutes. Optical density on exposed X-ray film (hu.q, HQ-320XT, China) was quantified using a transmission mode scanner (EPSON, Beijing, China) and analyzed using Image J software.

PANC-1 cells [6] = test: Exosome release from pancreatic cancer cells (NTA, Western blot); assay type: cell-based, human
Protocol: (§2) Human non-small cell lung cancer A549 cells and human pancreatic cancer PANC-1 cells were purchased from the Chinese Academy of Sciences Stem Cell Bank (Shanghai, China). […] Purification, characterization, and analysis of exosomes: To purify exosomes from cell culture supernatants, cells were cultured for 3 days in DMEM medium supplemented with 10% exosome-free FBS prepared by ultracentrifugation of regular FBS at 120,000 g for 16 h. Cell culture supernatants were collected and centrifuged at 500 g for 5 min and then at 2,000 g for 20 min to remove dead cells and cell debris. Then, large vesicles were removed by centrifugation at 12,000 g for 30 minutes. Crude exosomes were pelleted by ultracentrifugation of the supernatant at 110,000 g for 70 min (Backman Ti70), washed with PBS and filtered (0.2 μm). The pellet was then suspended and ultracentrifuged again at 110,000 g for 70 minutes. All ultracentrifugations were performed at 4° C. The size and number of exosomes were analyzed using an LM10 nanoparticle tracking system (NanoSight) equipped with a blue laser (405 nm). Transmission electron microscope (TEM) observation: The morphology of exosomes prepared from the culture supernatant was observed by transmission electron microscope (TEM). Exosome pellets were fixed overnight at 4° C. in 2% glutaraldehyde. Load a drop of 10 μL of the exosome suspension onto the Formvar/Carbon-coated TEM copper grid and let it stand for 20 min. Drain excess fluid. Samples were fixed with 1% uranyl acetate for 5 min, washed 8 times with double distilled water, and dried under incandescent lamp for 10 min, then examined with Tecnai G2 Spirit Bio TWIN transmission electron microscope (FEI, Hillsboro, USA, working voltage 120 kV). […] The lysate was centrifuged to remove insoluble material.

[7] = test system: A549, AGS, U87, SMMC-7721, HUH7; test: Cancer cell growth in vitro; assay type: cell-based, human; details: any concentration, highest 10 μM
Protocol: as §3

EAE mice = test: MOG-induced experimental autoimmune encephalomyelitis (EAE) mouse model; assay type: in vivo
A549 cells [8] = test: Wound healing assay; assay type: cell-based, human; details: different concentrations of C52, 48 h, dose-dependent
Protocol: Wound healing assay: Cells were seeded in 6-well plates containing complete medium and cultured at 37° C. in a humidified air environment containing 5% CO2. […] […] The wound area and migrated cells within the wound area were photographed using a phase-contrast microscope. The wound area was measured using Image J software.

[9] = test system: 84 selected human cancer-associated proteins in A549 cells; details: 3 μM C52 or 5 μM C52 for 48 h
Protocol: as §3, §4

Treg cells = test: Syngeneic mouse CT26 tumor model (Treg activation and regeneration); assay type: in vivo; details: 100 mg/kg C52 oral QD
Protocol: BALB/c mice were subcutaneously inoculated with 1×10E6 CT26 cells. Mice were randomly assigned to each treatment group. The tumor size was measured with a caliper, and the tumor volume was calculated by the following formula: V=length×width 2×1/2. Tumor-bearing mice were orally administered with vehicle or 100 mg/kg […], QD. On the 13th day after tumor inoculation, vehicle- and […]-treated mice were given a single intraperitoneal injection of low-dose (50 mg/kg) cyclophosphamide (Sigma-Aldrich). Mice were euthanized before tumors reached 2.0 cm in longest dimension. Spleen and lymph node samples were collected for flow cytometric analysis.

A549 cells [10] = test: Exosome release from lung cancer cells (NTA, Western blot); assay type: cell-based, human
Protocol: as §2

Huh7-NC12 cells [11] = test: Exosome release from liver cancer cells (luciferase exosome reporter, ExoHTP platform); assay type: cell-based; details: 48 h, luciferase activity of exosomes purified from supernatant
[12] = Western blot, 0.1, 1 and 10 μM C52, 48 h
[13] = Western blot, 0.1, 1 and 10 μM C52, 48 h, extracellular
[14] = C52 low and medium doses (10 or 30 mg/kg), oral once a day, vs vehicle

Protocol for U87 cells: Western blotting: Exosomes from cultures in different conditions were collected and purified by a classical differential centrifugation protocol, and then lysed with PMSF-containing RIPA buffer (Beyond Biotechnology, Shanghai, China). The lysate was centrifuged to remove insoluble material. The concentration of protein was determined by enhanced BCA protein assay kit (Beyontian Biotechnology, Shanghai, China). 40 g of proteins were separated by sodium dodecyl sulfate-polyacrylamide gel electrophoresis (SDS-PAGE) and transferred to a polyvinylidene difluoride membrane (Merck Millipore). Membranes were blocked with 5% milk for 1 h and then incubated with primary antibodies overnight at 4° C. Membranes were washed 3 times and then incubated with secondary antibodies for 1 h at room temperature. Bands were detected by Gel Imaging System (Bio-Rad, USA) and measured by Image J. The primary antibodies used were rabbit anti-β-actin, GAPHD, CD63, CD9, TSG101 and vimentin (Abcam, UK).

O=C(Nc1ccc(F)cc1)Nc1ccc(Nc2nc(/C=C/c3ccccc3)nc(N3CCOCC3)n2)cc1 [Compound C52]
migratory ability (Transwell) (A549 cells [1]): hindered the migratory ability
migratory ability (Transwell) (PANC-1 cells [2]): hindered the migratory ability
closure rate of the gap size (PANC-1 cells [3]): significantly decreased
inhibition of GFP expression (maximum) (HEK293T cells; C52 added 4 h after transfection, at 0.316 μM): approximately 40%
EC50 (HEK293T cells; C52 after transfection, read-out: EC50 for inhibition of endosomal trafficking): 82 nM
EC50 (HEK293T cells; C52 before transfection, read-out: EC50 for inhibition of endocytosis): 98 nM
EC50 (HEK293T cells; C52 during entire transfection period, read-out: EC50 for inhibition of the whole process): 45 nM
inhibition of GFP (HEK293T cells; C52 just before transfection only, at 0.316 μM): approximately 15%
inhibition of GFP (maximum) (HEK293T cells; C52 just before transfection only, at 10 μM): approximately 40%
maximum inhibition rate of GFP expression (HEK293T cells; C52 present throughout the transfection, at 0.316 μM): about 50%
cytotoxicity (Huh7-NC12 cells [4]; 48 h, highest concentration 10,000 nM, high concentrations 3,160 and 10,000 nM): not cytotoxic
survival rate (Huh7-NC12 cells [4]; after two days of treatment): about 90%
toxicity to Huh7-NC12 cells (Huh7-NC12 cells [4]; high concentrations (>3160 nM)): not toxic
inhibition of GFP signal increase (Pseudovirus-2019-nCoV): as strong as that by the positive control
IC50 (Pseudovirus-2019-nCoV; read-out: IC50 of inhibition of pseudovirus infection): < 50 nM
effect on protein levels of vimentin and other signaling molecules involved in cell proliferation [5]: little or no effect
amount of exosomal markers CD9 and CD63 inside the cells (U87 cells): did not reduce
extracellular levels of exosomal markers CD9 and CD63 (U87 cells): reduced
CD9 in the cell culture medium (U87 cells; vimentin-knockdown U87 Vim+/- cells, 2 μM C52, 72 h): further reduction
exosomes in culture supernatant (nanoparticle tracking analysis) (PANC-1 cells [6]; 1 μM C52 vs DMSO): significantly reduced
intracellular exosome levels (PANC-1 cells [6]; [12]): did not reduce
content of exosomal markers (CD9, CD63, TSG101) in prepared exosome samples (PANC-1 cells [6]; [13]): significant reduction
effect on the growth of cancer cells [7]: no effect
animal weight loss (EAE mice; [14]): less weight loss; also recorded: reduced
clinical disease scores (EAE mice; [14]): lower; also recorded: improved
disease onset (EAE mice; [14]): relatively delayed
therapeutic effect in EAE (EAE mice; mouse, in vivo, po, 100 mg/kg): no therapeutic effect
closure rate of the gap size (A549 cells [8]): significantly decreased
effect on protein levels of vimentin and other signaling molecules involved in cell proliferation [9]: little or no effect
tumor growth vs vehicle-treated control mice (Treg cells; BALB/c mice with CT26 tumors): grow faster
regeneration of Treg in lymph nodes (Treg cells; day 29, 16 days after low-dose cyclophosphamide): significantly increased
exosomes in culture supernatant (nanoparticle tracking analysis) (A549 cells [10]; 1 μM C52 vs DMSO): significantly reduced
intracellular exosome levels (A549 cells [10]; [12]): did not reduce
content of exosomal markers (CD9, CD63, TSG101) in prepared exosome samples (A549 cells [10]; [13]): significant reduction
inhibition of exosome release (Huh7-NC12 cells [11]): comparable to that of the known exosome inhibitor GW4869; also recorded: effectively inhibit the release of exosomes
